Experimental data taken from patent publication US20160159814A1, “GLYCINE TRANSPORTER INHIBITOR” (TAISHO PHARMACEUTICAL CO., LTD., priority 2013, published 2016).

biological target: T1, human type 1 glycine transporter (GlyT1) (Homo sapiens, UniProt P48067); assay: Glycine uptake inhibition experiment ([3H] glycine uptake in T98G cells expressing GlyT1); assay type: cell-based; details: glycine uptake inhibition
T1 construct: T98G cells (glioma cells) expressing human type 1 glycine transporter (GlyT1) were used; endogenous in cells; host or cells: T98G cells (human glioma cells)
T1 sequence (P48067 1-706): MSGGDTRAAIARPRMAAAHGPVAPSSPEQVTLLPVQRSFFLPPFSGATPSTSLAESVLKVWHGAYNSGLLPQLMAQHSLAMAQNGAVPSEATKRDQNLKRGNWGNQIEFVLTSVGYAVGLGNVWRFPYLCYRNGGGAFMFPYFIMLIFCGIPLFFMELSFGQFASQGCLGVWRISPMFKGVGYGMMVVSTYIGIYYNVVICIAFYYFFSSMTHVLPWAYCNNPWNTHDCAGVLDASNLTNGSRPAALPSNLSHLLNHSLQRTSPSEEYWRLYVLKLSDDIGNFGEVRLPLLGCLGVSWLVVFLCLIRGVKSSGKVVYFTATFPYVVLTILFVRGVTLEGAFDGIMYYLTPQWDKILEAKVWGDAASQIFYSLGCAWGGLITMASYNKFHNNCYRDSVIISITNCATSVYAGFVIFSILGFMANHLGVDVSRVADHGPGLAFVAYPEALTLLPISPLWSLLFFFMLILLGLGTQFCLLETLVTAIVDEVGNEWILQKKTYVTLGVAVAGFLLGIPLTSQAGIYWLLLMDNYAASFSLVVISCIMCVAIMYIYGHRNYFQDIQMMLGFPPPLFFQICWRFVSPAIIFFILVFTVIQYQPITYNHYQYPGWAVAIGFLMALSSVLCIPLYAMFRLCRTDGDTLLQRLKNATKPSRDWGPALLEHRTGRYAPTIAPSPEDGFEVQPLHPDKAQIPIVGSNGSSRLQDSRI
How it was run: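 T98G glioma cells expressing human GlyT1 were pretreated 10 min with compound in HEPES buffer pH 7.4 (0.2% BSA), then incubated with compound plus 250 nM final [3H]glycine for 15 min at room temperature. Intracellular radioactivity was counted after NaOH lysis; 10 μM ALX5407 defined non-specific uptake. IC50 came from 10^−9–10^−5 M curves.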

| SMILES | IC50 |
| --- | --- |
| CC(O)c1cccc2c1C(F)(F)C(=O)N2Cc1ccnc(C#N)c1 (stereo not drawn) [Compound 28] | 98 nM |
| CC(O)c1cccc2c1C(F)(F)C(=O)N2Cc1ccnc(F)c1 (stereo not drawn) [Compound 29, 3,3-difluoro-1-[(2-fluoropyridin-4-yl)methyl]-4-(1-hydroxyethyl)-1,3-dihydro-2H-indol-2-one] | 77 nM |
| O=C1N(Cc2ccnc(Cl)c2)c2cccc([C@H](O)C(F)(F)F)c2C1(F)F [Compound 31, 1-[(2-chloropyridin-4-yl)methyl]-3,3-difluoro-4-[(1S)-2,2,2-trifluoro-1-hydroxyethyl]-1,3-dihydro-2H-indol-2-one] | 350 nM |
| C[C@@H](O)c1cccc2c1C(F)(F)C(=O)N2Cc1ccnc(C#N)c1 [Compound 38, 4-({3,3-difluoro-4-[(1R)-1-hydroxyethyl]-2-oxo-2,3-dihydro-1H-indol-1-yl}methyl)pyridine-2-carbonitrile] | 5300 nM |
| C[C@@H](O)c1cccc2c1C(F)(F)C(=O)N2Cc1nc2ccccc2c(=O)n1C [Compound 39, 2-({3,3-difluoro-4-[(1R)-1-hydroxyethyl]-2-oxo-2,3-dihydro-1H-indol-1-yl}methyl)-3-methylquinazolin-4(3H)-one] | 620 nM |
| C[C@@H](O)c1cccc2c1C(F)(F)C(=O)N2Cc1ccnc(F)c1 [Compound 43, 3,3-difluoro-1-[(2-fluoropyridin-4-yl)methyl]4-[(1R)-1-hydroxyethyl]-1,3-dihydro-2H-indol-2-one] | 4400 nM |
| C[C@H](O)c1cccc2c1C(F)(F)C(=O)N2Cc1cccc(-n2nccn2)n1 [Compound 44, 3,3-difluoro-4-[(1S)-1-hydroxyethyl]-1-{[6-(2H-1,2,3-triazol-2-yl)pyridin-2-yl]methyl}-1,3-dihydro-2H-indol-2-one] | 68 nM |
| C[C@H](O)c1cccc2c1C(F)(F)C(=O)N2Cc1ccnc(-n2nccn2)c1 [Compound 45, 3,3-difluoro-4-[(1S)-1-hydroxyethyl]-1-{[2-(2H-1,2,3-triazol-2-yl)pyridin-4-yl]methyl}-1,3-dihydro-2H-indol-2-one] | 110 nM |
| C[C@H](O)c1cccc2c1C(F)(F)C(=O)N2Cc1ccc2nccnc2c1 [Compound 46, 3,3-difluoro-4-[(1S)-1-hydroxyethyl]-1-(quinoxalin-6-ylmethyl)-1,3-dihydro-2H-indol-2-one] | 140 nM |
| O=C1N(Cc2cncc(Cl)c2)c2ccc(F)c(C(O)C(F)(F)F)c2C1(F)F (stereo not drawn) [Compound 48, 1-[(5-chloropyridin-3-yl)methyl]-3,3,5-trifluoro-4-(2,2,2-trifluoro-1-hydroxyethyl)-1,3-dihydro-2H-indol-2-one] | 85 nM |
| CC(c1cccc(Cl)n1)N1C(=O)C(F)(F)c2c([C@H](C)O)cccc21 (stereo partly drawn) [Compound 51, 1-[1-(6-chloropyridin-2-yl)ethyl]-3,3-difluoro-4-[(1S)-1-hydroxyethyl]-1,3-dihydro-2H-indol-2-one] | 260 nM |
| C[C@H](O)c1cccc2c1C(F)(F)C(=O)N2Cc1ccccn1 [Compound 60, 3,3-difluoro-4-[(1S)-1-hydroxyethyl]-1-(pyridin-2-ylmethyl)-1,3-dihydro-2H-indol-2-one] | 230 nM |
| C[C@H](O)c1cccc2c1C(F)(F)C(=O)N2Cc1cccnc1 [Compound 61, 3,3-difluoro-4-[(1S)-1-hydroxyethyl]-1-(pyridin-3-ylmethyl)-1,3-dihydro-2H-indol-2-one] | 420 nM |
| C[C@H](O)c1cccc2c1C(F)(F)C(=O)N2Cc1cccc(-n2cncn2)n1 [Compound 62, 3,3-difluoro-4-[(1S)-1-hydroxyethyl]-1-{[6-(1H-1,2,4-triazol-1-yl)pyridin-2-yl]methyl}-1,3-dihydro-2H-indol-2-one] | 230 nM |
| C[C@H](O)c1cccc2c1C(F)(F)C(=O)N2Cc1cncc(F)c1 [Compound 63, 3,3-difluoro-1-[(5-fluoropyridin-3-yl)methyl]-4-[(1S)-1-hydroxyethyl]-1,3-dihydro-2H-indol-2-one] | 76 nM |
| C[C@H](O)c1cccc2c1C(F)(F)C(=O)N2Cc1ccncc1 [Compound 64, 3,3-difluoro-4-[(1S)-1-hydroxyethyl]-1-(pyridin-4-ylmethyl)-1,3-dihydro-2H-indol-2-one] | 390 nM |
| COc1ccnc(CN2C(=O)C(F)(F)c3c([C@H](C)O)cccc32)c1 [Compound 66, 3,3-difluoro-4-[(1S)-1-hydroxyethyl]-1-[(4-methoxypyridin-2-yl)methyl]-1,3-dihydro-2H-indol-2-one] | 130 nM |

The next compounds have a lower IC50 than those just listed; values first:

| IC50 | SMILES |
| --- | --- |
| 23 nM | CC(O)c1cccc2c1C(F)(F)C(=O)N2Cc1ccnc(Cl)c1 (stereo not drawn) [Compound 27, 1-[(2-chloropyridin-4-yl)methyl]-3,3-difluoro-4-(1-hydroxyethyl)-1,3-dihydro-2H-indol-2-one] |
| 54 nM | CC(O)c1cccc2c1C(F)(F)C(=O)N2Cc1nc2ccccc2c(=O)n1C (stereo not drawn) [Compound 30, 2-{[3,3-difluoro-4-(1-hydroxyethyl)-2-oxo-2,3-dihydro-1H-indol-1-yl]methyl)-3-methylquinazolin-4(3H)-one] |
| 38 nM | O=C1N(Cc2ccnc(Cl)c2)c2cccc([C@@H](O)C(F)(F)F)c2C1(F)F [Compound 32, 1-[(2-chloropyridin-4-yl)methyl]-3,3-difluoro-4-[(1R)-2,2,2-trifluoro-1-hydroxyethyl]-1,3-dihydro-2H-indol-2-one] |
| 43 nM | Cn1c(CN2C(=O)C(F)(F)c3c([C@@H](O)C(F)(F)F)cccc32)nc2ccccc2c1=O [Compound 37, 2-({3,3-difluoro-2-oxo-4-[(1R)-2,2,2-trifluoro-1-hydroxyethyl]-2,3-dihydro-1H-indol-1-yl}methyl)-3-methylquinazolin-4(3H)-one] |
| 38 nM | C[C@H](O)c1cccc2c1C(F)(F)C(=O)N2Cc1ccnc(C#N)c1 [Compound 40, 4-({3,3-difluoro-4-[(1S)-1-hydroxyethyl]-2-oxo-2,3-dihydro-1H-indol-1-yl}methyl)pyridine-2-carbonitrile] |
| 29 nM | C[C@H](O)c1cccc2c1C(F)(F)C(=O)N2Cc1nc2ccccc2c(=O)n1C [Compound 41, 2-({3,3-difluoro-4-[(1S)-1-hydroxyethyl]-2-oxo-2,3-dihydro-1H-indol-1-yl}methyl)-3-methylquinazolin-4(3H)-one] |
| 50 nM | C[C@H](O)c1cccc2c1C(F)(F)C(=O)N2Cc1ccnc(F)c1 [Compound 42, 3,3-difluoro-1-[(2-fluoropyridin-4-yl)methyl]-4-[(1S)-1-hydroxyethyl]-1,3-dihydro-2H-indol-2-one] |
| 40 nM | O=C1N(Cc2cncc(Cl)n2)c2cccc([C@@H](O)C(F)(F)F)c2C1(F)F [Compound 47, 1-[(6-chloropyrazin-2-yl)methyl]-3,3-difluoro-4-[(1R)-2,2,2-trifluoro-1-hydroxyethyl]-1,3-dihydro-2H-indol-2-one] |
| 20 nM | C[C@H](O)c1cccc2c1C(F)(F)C(=O)N2Cc1ccccc1 [Compound 54, 1-benzyl-3,3-difluoro-4-[(1S)-1-hydroxyethyl]-1,3-dihydro-2H-indol-2-one] |
| 2.2 nM | C[C@H](O)c1cccc2c1C(F)(F)C(=O)N2Cc1cccc(Cl)c1 [Compound 55, 1-(3-chlorobenzyl)-3,3-difluoro-4-[(1S)-1-hydroxyethyl]-1,3-dihydro-2H-indol-2-one] |
| 9.1 nM | C[C@H](O)c1cccc2c1C(F)(F)C(=O)N2Cc1cccc(F)c1 [Compound 56, 3,3-difluoro-1-(3-fluorobenzyl)-4-[(1S)-1-hydroxyethyl)-1,3-dihydro-2H-indol-2-one] |
| 15 nM | C[C@H](O)c1cccc2c1C(F)(F)C(=O)N2Cc1cccc(C#N)c1 [Compound 57, 3-({3,3-difluoro-4-[(1S)-1-hydroxyethyl]-2-oxo-2,3-dihydro-1H-indol-1-yl}methyl) benzonitrile] |
| 6.6 nM | C[C@H](O)c1cccc2c1C(F)(F)C(=O)N2Cc1cccc(C(F)(F)F)c1 [Compound 58, 3,3-difluoro-4-[(1S)-1-hydroxyethyl]-1-[3-(trifluoromethyl)benzyl]-1,3-dihydro-2H-indol-2-one] |
| 18 nM | COc1cccc(CN2C(=O)C(F)(F)c3c([C@H](C)O)cccc32)c1 [Compound 59, 3,3-difluoro-4-[(1S)-1-hydroxyethyl]-1-(3-methoxybenzyl)-1,3-dihydro-2H-indol-2-one] |
| 18 nM | C[C@H](O)c1cccc2c1C(F)(F)C(=O)N2Cc1cc(Cl)ccn1 [Compound 65, 1-[(4-chloropyridin-2-yl)methyl]-3,3-difluoro-4-[(1S)-1-hydroxyethyl]-1,3-dihydro-2H-indol-2-one] |
| 17 nM | C[C@H](O)c1cccc2c1C(F)(F)C(=O)N2Cc1cccc(C(F)(F)F)n1 [Compound 67, 3,3-difluoro-4-[(1S)-1-hydroxyethyl]-1-{[6-(trifluoromethyl)pyridin-2-yl]methyl}-1,3-dihydro-2H-indol-2-one] |
